According to patent US20030087906A1, “NITROGEN SUBSTITUTED BIARYL PURINE DERIVATIVES AS POTENT ANTIPROLIFERATIVE AGENTS” (priority 2001, published 2003):

Key:
Assay in all cases: NCI 60-cell line growth inhibition assay
Type in all cases: cell-based
LOX IMVI = conditions: Homo sapiens; LOX IMVI (Melanoma)
SK-MEL-28 = conditions: Homo sapiens
A549/ATCC = conditions: Homo sapiens
SK-MEL-5 = conditions: Homo sapiens
MCF7 = conditions: Homo sapiens
MDA-N = conditions: Homo sapiens
KM12 = conditions: Homo sapiens
HT29 = conditions: Homo sapiens, HT-29; HT29 (Colon)
SK-OV-3 = conditions: Homo sapiens
NCI-H522 = conditions: Homo sapiens; NCI-H522 (Non-Small Cell Lung)
HS 578T = conditions: Homo sapiens
MOLT-4 = conditions: Homo sapiens
OVCAR-8 = conditions: Homo sapiens; OVCAR-8 (Ovarian)
HOP-62 = conditions: Homo sapiens
IGROV1 = conditions: Homo sapiens, IGROV-1
NCI-H322M = conditions: Homo sapiens
HCT-15 = conditions: Homo sapiens
RPMI-8226 = conditions: Homo sapiens
K-562 = conditions: Homo sapiens, K562
OVCAR-5 = conditions: Homo sapiens
UO-31 = conditions: Homo sapiens
M14 = conditions: Homo sapiens
SW-620 = conditions: Homo sapiens; SW-620 (Colon)
SNB-75 = conditions: Homo sapiens
RXF 393 = conditions: Homo sapiens
TK-10 = conditions: Homo sapiens; TK-10 (Renal)
U251 = conditions: Homo sapiens, U-251
SR = conditions: Homo sapiens; SR (Leukemia)
HOP-92 = conditions: Homo sapiens
OVCAR-4 = conditions: Homo sapiens
NCI-H460 = conditions: Homo sapiens
SN12C = conditions: Homo sapiens; SN12C (Renal)
COLO 205 = conditions: Homo sapiens
MDA-MB-231/ATCC = conditions: Homo sapiens
SF-295 = conditions: Homo sapiens
EKVX = conditions: Homo sapiens
CAKI-1 = conditions: Homo sapiens
NCI-H226 = conditions: Homo sapiens
MDA-MB-435 = conditions: Homo sapiens; Breast, MDA-MB-435
HL-60(TB) = conditions: Homo sapiens; HL-60(TB) (Leukemia)
[1] = A549/ATCC (Non-Small Cell Lung)
[2] = NCI-H322M (Non-Small Cell Lung)

**Q.** With `CC[C@H](CO)Nc1nc(NCc2ccc(-c3cccc([N+](=O)[O-])c3)cc2)c2ncn(C(C)C)c2n1` [Compound 48] as the molecule, how does the GI50 (LOX IMVI) read?
**A.** 190 nM

**Q.** What about the GI50 (SK-MEL-28; SK-MEL-28 (Melanoma)) of the same molecule?
**A.** < 10 nM

**Q.** And the GI50 (A549/ATCC; [1])?
**A.** < 10 nM

**Q.** And the GI50 (SK-MEL-5; SK-MEL-5 (Melanoma))?
**A.** 170 nM

**Q.** What about the GI50 (MCF7; MCF7 (Breast)) of the same molecule?
**A.** 250 nM

**Q.** What about the GI50 (MDA-N; MDA-N (Breast)) of the same molecule?
**A.** 20 nM

**Q.** What about the GI50 (KM12; KM12 (Colon)) of the same molecule?
**A.** 20 nM

**Q.** What about the GI50 (HT29) of the same molecule?
**A.** < 10 nM

**Q.** And the GI50 (SK-OV-3; SK-OV-3 (Ovarian))?
**A.** 1380 nM

**Q.** What about the GI50 (NCI-H522) of the same molecule?
**A.** < 10 nM

**Q.** What about the GI50 (HS 578T; HS 578T (Breast)) of the same molecule?
**A.** 30 nM

**Q.** What about the GI50 (MOLT-4; MOLT-4 (Leukemia)) of the same molecule?
**A.** 50 nM

**Q.** What about the GI50 (OVCAR-8) of the same molecule?
**A.** 100 nM

**Q.** And the GI50 (HOP-62; HOP-62 (Non-Small Cell Lung))?
**A.** 30 nM

**Q.** What about the GI50 (IGROV1; IGROV1 (Ovarian)) of the same molecule?
**A.** 230 nM

**Q.** And the GI50 (NCI-H322M; [2])?
**A.** 30 nM

**Q.** What about the GI50 (HCT-15; HCT-15 (Colon)) of the same molecule?
**A.** 20 nM

**Q.** And the GI50 (RPMI-8226; RPMI-8226 (Leukemia))?
**A.** < 10 nM

**Q.** What about the GI50 (K-562; K-562 (Leukemia)) of the same molecule?
**A.** 160 nM

**Q.** What about the GI50 (OVCAR-5; OVCAR-5 (Ovarian)) of the same molecule?
**A.** 160 nM

**Q.** What about the GI50 (UO-31; UO-31 (Renal)) of the same molecule?
**A.** < 10 nM

**Q.** What about the GI50 (M14; M14 (Melanoma)) of the same molecule?
**A.** < 10 nM

**Q.** And the GI50 (SW-620)?
**A.** < 10 nM

**Q.** What about the GI50 (SNB-75; SNB-75 (CNS)) of the same molecule?
**A.** < 10 nM

**Q.** And the GI50 (RXF 393; RXF 393 (Renal))?
**A.** < 10 nM

**Q.** What about the GI50 (TK-10) of the same molecule?
**A.** 370 nM

**Q.** What about the GI50 (U251; U251 (CNS)) of the same molecule?
**A.** 170 nM

**Q.** And the GI50 (SR)?
**A.** 160 nM

**Q.** What about the GI50 (HOP-92; HOP-92 (Non-Small Cell Lung)) of the same molecule?
**A.** 460 nM

**Q.** What about the GI50 (OVCAR-4; OVCAR-4 (Ovarian)) of the same molecule?
**A.** 200 nM

**Q.** And the GI50 (NCI-H460; NCI-H460 (Non-Small Cell Lung))?
**A.** 250 nM

**Q.** And the GI50 (SN12C)?
**A.** 30 nM

**Q.** What about the GI50 (COLO 205; COLO 205 (Colon)) of the same molecule?
**A.** 30 nM

**Q.** And the GI50 (MDA-MB-231/ATCC; MDA-MB-231/ATCC (Breast))?
**A.** 90 nM

**Q.** What about the GI50 (SF-295; SF-295 (CNS)) of the same molecule?
**A.** 240 nM

**Q.** Which results are given for `CC[C@H](CO)Nc1nc(NCc2ccc(-c3ccccc3)cc2)c2ncn(C(C)C)c2n1` [Compound 73]?
**A.** GI50 (SK-MEL-28; Melanoma, SK-MEL-28): 450 nM; GI50 (A549/ATCC; Non-Small Cell Lung, A549/ATCC): 30 nM; GI50 (EKVX; Non-Small Cell Lung, EKVX): 250 nM; GI50 (SK-MEL-5; Melanoma, SK-MEL-5): 250 nM; GI50 (MCF7; Breast, MCF7): 160 nM; GI50 (MDA-N; Breast, MDA-N): 130 nM; GI50 (KM12; Colon, KM12): 130 nM; GI50 (CAKI-1; Renal, CAKI-1): 1660 nM; GI50 (SK-OV-3; Ovarian, SK-OV-3): 950 nM; GI50 (HS 578T; Breast, HS 578T): 100 nM; GI50 (MOLT-4; Leukemia, MOLT-4): 320 nM; GI50 (HOP-62; Non-Small Cell Lung, HOP-62): 60 nM; GI50 (NCI-H226; Non-Small Cell Lung, NCI-H226): 220 nM; GI50 (IGROV1; Ovarian, IGROV1): 320 nM; GI50 (NCI-H322M; Non-Small Cell Lung, NCI-H322M): 160 nM; GI50 (HCT-15; Colon, HCT-15): 180 nM; GI50 (RPMI-8226; Leukemia, RPMI-8226): 30 nM; GI50 (K-562; Leukemia, K-562): 160 nM; GI50 (OVCAR-5; Ovarian, OVCAR-5): 250 nM; GI50 (UO-31; Renal, UO-31): 60 nM; GI50 (M14; Melanoma, M14): 30 nM; GI50 (SNB-75; CNS, SNB-75): 20 nM; GI50 (RXF 393; Renal, RXF 393): 90 nM; GI50 (U251; CNS, U251): 320 nM; GI50 (MDA-MB-435): 250 nM; GI50 (HOP-92; Non-Small Cell Lung, HOP-92): 1000 nM; GI50 (OVCAR-4; Ovarian, OVCAR-4): 320 nM; GI50 (NCI-H460; Non-Small Cell Lung, NCI-H460): 400 nM; GI50 (COLO 205; Colon, COLO 205): 280 nM; GI50 (MDA-MB-231/ATCC; Breast, MDA-MB-231/ATCC): 500 nM; GI50 (SF-295; CNS, SF-295): 250 nM

**Q.** For `CC(C)n1cnc2c(NCc3ccc(-c4ccccn4)cc3)nc(N[C@H]3CC[C@H](N)CC3)nc21` [Compound 78], which GI50 (SK-MEL-28; SK-MEL-28 (Melanoma)) is on record?
**A.** 10 nM

**Q.** What about the GI50 (A549/ATCC; [1]) of the same molecule?
**A.** < 10 nM

**Q.** What about the GI50 (EKVX; EKVX (Non-Small Cell Lung)) of the same molecule?
**A.** 50 nM

**Q.** And the GI50 (SK-MEL-5; SK-MEL-5 (Melanoma))?
**A.** 100 nM

**Q.** What about the GI50 (MCF7; MCF7 (Breast)) of the same molecule?
**A.** < 10 nM

**Q.** What about the GI50 (MDA-N; MDA-N (Breast)) of the same molecule?
**A.** < 10 nM

**Q.** What about the GI50 (KM12; KM12 (Colon)) of the same molecule?
**A.** < 10 nM

**Q.** What about the GI50 (CAKI-1; CAKI-1 (Renal)) of the same molecule?
**A.** 790 nM

**Q.** And the GI50 (HT29)?
**A.** < 10 nM

**Q.** What about the GI50 (SK-OV-3; SK-OV-3 (Ovarian)) of the same molecule?
**A.** 60 nM

**Q.** And the GI50 (NCI-H522)?
**A.** < 10 nM

**Q.** And the GI50 (HL-60(TB))?
**A.** < 10 nM

**Q.** And the GI50 (MOLT-4; MOLT-4 (Leukemia))?
**A.** < 10 nM

**Q.** What about the GI50 (OVCAR-8) of the same molecule?
**A.** 20 nM

**Q.** What about the GI50 (HOP-62; HOP-62 (Non-Small Cell Lung)) of the same molecule?
**A.** 20 nM

**Q.** What about the GI50 (NCI-H226; NCI-H226 (Non-Small Cell Lung)) of the same molecule?
**A.** 20 nM

**Q.** What about the GI50 (IGROV1; IGROV1 (Ovarian)) of the same molecule?
**A.** < 10 nM

**Q.** What about the GI50 (NCI-H322M; [2]) of the same molecule?
**A.** < 10 nM

**Q.** And the GI50 (HCT-15; HCT-15 (Colon))?
**A.** 1480 nM

**Q.** And the GI50 (RPMI-8226; RPMI-8226 (Leukemia))?
**A.** < 10 nM

**Q.** And the GI50 (K-562; K-562 (Leukemia))?
**A.** 20 nM

**Q.** And the GI50 (OVCAR-5; OVCAR-5 (Ovarian))?
**A.** < 10 nM

**Q.** What about the GI50 (UO-31; UO-31 (Renal)) of the same molecule?
**A.** 170 nM

**Q.** And the GI50 (M14; M14 (Melanoma))?
**A.** < 10 nM

**Q.** And the GI50 (SW-620)?
**A.** < 10 nM

**Q.** What about the GI50 (SNB-75; SNB-75 (CNS)) of the same molecule?
**A.** < 10 nM

**Q.** What about the GI50 (RXF 393; RXF 393 (Renal)) of the same molecule?
**A.** < 10 nM

**Q.** And the GI50 (TK-10)?
**A.** 70 nM

**Q.** And the GI50 (U251; U251 (CNS))?
**A.** 20 nM

**Q.** What about the GI50 (OVCAR-4; OVCAR-4 (Ovarian)) of the same molecule?
**A.** 20 nM

**Q.** What about the GI50 (NCI-H460; NCI-H460 (Non-Small Cell Lung)) of the same molecule?
**A.** 50 nM

**Q.** And the GI50 (SN12C)?
**A.** < 10 nM

**Q.** What about the GI50 (COLO 205; COLO 205 (Colon)) of the same molecule?
**A.** < 10 nM

**Q.** What about the GI50 (MDA-MB-231/ATCC; MDA-MB-231/ATCC (Breast)) of the same molecule?
**A.** < 10 nM

**Q.** What about the GI50 (SF-295; SF-295 (CNS)) of the same molecule?
**A.** 210 nM
